Several values for one entry are separate records, joined by “and”; a condition that tells them apart may be missing. Equal values may be shown once. Read-outs that look alike come from different tables or passages of the source.

Results on two compounds are retold here after paper PMC7217877, “N-AS-triggered SPMs are direct regulators of microglia in a model of Alzheimer’s disease” (Nature Communications, 2020).

In data set [1] the test system is neuron. Briefly: sphingosine level in primary cells (UPLC). It is filed as cell-based, C57BL/6 mice. As to conditions: Ab 10mM, replicates. Here is the method: To confirm the generation and roles of N-AS in neurons, cells from E18 C57BL/6 mice were prepared as previously described. Cortices were dissected and then dissociated followed by incubation in papain (Worthington) at 37 °C for 15 min. Neurons were plated on poly-L-lysine-coated coverslips with neuronal culture medium, serum-free Neurobasal medium (Gibco) containing 2% B27 supplements (Gibco), 1 mM Glutamax supplement (Gibco), and 100 U ml^−1 streptomycin/ 100 U ml^−1 penicillin (Gibco) at 37 °C in a humidified atmosphere of 5% CO2. […] Primary astrocyte cultures were prepared from C57BL/6 mice as described previously. In brief, after removal of the meninges, postnatal day 7 (P7) mouse brain tissues were minced and incubated in a rocking water bath at 37 °C for 30 min in the presence of 0.25% trypsin-EDTA (Sigma-Aldrich). […] The human microglia treated with Aβ 1–42 and/or zileuton was incubated with N-AS (2.5 μM, 2 h, Sigma-Aldrich, 01912), and were analyzed for the generation and roles of N-AS.
To quantify the sphingosine levels, the dried lipid extract was resuspended in 0.2% Igepal CA-630. […] The fluorescent sphingosine was monitored using a model 474 scanning fluorescence detector (Waters). Quantification of the sphingosine was calculated from sphingosine calibration curves using the Waters Millennium software.

Data set [2] in a line: single-dose plasma PK. It is filed as in vivo, C57BL/6 mice. Conditions: mouse; for AUC(0-inf): read-out: AUCinf (Plasma); for AUC(0-t): read-out: AUClast (Plasma). Here is the method:
C57BL/6 mice were administered N-AS (Sigma-Aldrich, 01912) at doses of 1 mg kg^−1 (i.v.) or 10 mg kg^−1 (p.o.). Venous blood samples were collected at 5, 15, and 30 min, and 1, 2, 4, 8, and 24 h postdose. A 30 μl of plasma was separated from whole blood by centrifugation and stored at −80 °C until analysis. Also, brain samples were collected at 1, 2, 4, and 24 h postdose and heart, liver, and kidney samples were collected at 24 h postdose, thoroughly rinsed with physiological saline and weighed. Twenty percentage of tissue homogenates were prepared by homogenizing the tissue samples with four volumes of saline. A 30 μl aliquot of plasma or a 50 μl aliquot of tissue homogenates were deproteinized by addition of 200 μl cold methanol (containing naringenin as internal standard at 20 ng ml^−1) and centrifuged at 15,974×g for 10 min. A 10 μl aliquot of the supernatant was injected into Agilent 6470 LC-MS/MS system. Separation was performed on a Synergy Polar RP column (4 μm particle size, 2.0 mm ×150 mm, Phenomenex) using a mobile phase that consisted of methanol and water (85:15, v/v) with 0.1% formic acid at a flow rate of 0.2 ml min^−1. Quantification was carried out using multiple reaction monitoring (MRM) at m/z 340.3→263.3 for N-AS and m/z 271.1→151.3 for naringenin (internal standard) in negative ionization mode and collision energy of 20 eV. p, and relative oral BA values were calculated as follows: BA% = AUCp.o. normalized by p.o. dose/AUCi.v. normalized by i.v. dose × 100.

The mark [3] stands for this setting: C57BL/6, plasma, iv, i.v. 1 mg/kg.
The mark [4] stands for this setting: C57BL/6, plasma, po, p.o. 10 mg/kg.

In the case of “Ab: Aβ 1–42 (Invitrogen, 03112) used to induce an AD environment in cells”, in data set [1], the “sphingosine (Fig 3f)” value was 0.1262 and 0.1156 and 0.1288 and 0.1301 and 0.1222 and 0.1295.
Consider `CCCCCCCCCCCCC/C=C/[C@@H](O)[C@H](CO)NC(C)=O` [N-AS, N-((2S,3R,E)-1,3-Dihydroxyoctadec-4-en-2-yl)acetamide], for which, in data set [2] (setting [3]), the MRT (as a rule, the average time that molecules of a dose stay in the body) was 2.27 ± 0.11 h; the half-life (commonly the time needed for the level to fall by half in the phase considered) was 3.45 ± 0.16 h; the AUC(0-inf) was found to be 667 ± 28.8 ng·h/mL; the AUC(0-t) was 665 ± 28.6 ng·h/mL. Also, in data set [2] (C57BL/6, plasma, oral, p.o. 10 mg/kg vs i.v. 1 mg/kg, read-out: BA (Bioavailability)), the bioavailability (in general, dose-corrected exposure relative to a reference, in per cent) came out at 8.25%. Also, in data set [2] (setting [4]), the peak concentration (Cmax) (usually the highest concentration seen after dosing) came to 683 ± 141 ng/mL; the MRT was determined as 3.1 ± 0.14 h; the Tmax (as a rule, the time from dosing to the highest level) amounted to 0.25 h; the half-life is 3.68 ± 0.14 h. Also, in data set [2] (setting [4]), the AUC(0-inf) was found to be 550 ± 71.3 ng·h/mL and the AUC(0-t) came out at 545 ± 72.1 ng·h/mL. Besides, the “Co (Plasma)” value in data set [2] (i.v. 1 mg/kg) came to 854.36 ± 128.60 ng/mL. Also, the “bioavailability (BA), in words” value in data set [2] (p.o.) was “low”.
